Each block holds one compound with its values, some of them ahead of it. Calls of active or inactive are those of the source. The rule behind the calls is not given here.
Assays:
[1] = (§1) Antiproliferative activity against human CaSki cells after 24 hrs by MTT assay; type: functional, cell-based; settings: Ca-Ski
[2] = (§2) Antiproliferative activity against human ViBo cells after 24 hrs by MTT assay; type: functional, cell-based
ViBo [3] = test: Induction of apoptosis in human ViBo cells assessed as DNA fragmentation at 10 to 18 uM after 24 hrs by TUNEL assay; type: functional, cell-based
[4] = Cytotoxicity against human CaSki cells at IC50 after 24 hrs by LDH release assay relative to control; type: functional, Ca-Ski
[5] = Cytotoxicity against human ViBo cells at IC50 after 24 hrs by LDH release assay relative to control; type: functional
HeLa [6] = test: Induction of apoptosis in human HeLa cells assessed as chromatin condensation by DAPI staining-based fluorescence microscopic analysis; type: functional, cell-based
HeLa [7] = test: Antiproliferative activity against human HeLa cells after 24 hrs by MTT assay; type: functional, cell-based
Ca-Ski [8] = test: Induction of apoptosis in human CaSki cells assessed as caspase-3 activation at 10 to 18 uM after 15 mins by DAPI staining-based epifluorescence microscopic analysis; type: functional, cell-based
[9] = Cell cycle arrest in human CaSki cells assessed as accumulation at S phase at IC50 after 24 hrs by propidium iodide staining-based flow cytometric analysis relative to control; type: functional; settings: Ca-Ski
[10] = Cytotoxicity against PHA-activated human lymphocytes at IC50 after 72 hrs by LDH release assay; type: cell-based; settings: lymphocyte
HeLa [11] = test: Cell cycle arrest in human HeLa cells assessed as accumulation at sub-G1 phase at IC50 after 24 hrs by propidium iodide staining-based flow cytometric analysis relative to control; type: functional
HeLa [12] = test: Cell cycle arrest in human HeLa cells assessed as accumulation at G1 phase at IC50 after 24 hrs by propidium iodide staining-based flow cytometric analysis (reference value: 62.51 +/- 3.76%); type: functional
Ca-Ski [13] = test: Induction of apoptosis in human CaSki cells assessed as effect on cell morphology; type: functional, cell-based
[14] = Cell cycle arrest in human CaSki cells assessed as accumulation at G1 phase at IC50 after 24 hrs by propidium iodide staining-based flow cytometric analysis relative to control; type: functional; settings: Ca-Ski
[15] = Cell cycle arrest in human CaSki cells assessed as accumulation at sub-G1 phase at IC50 after 24 hrs by propidium iodide staining-based flow cytometric analysis relative to control; type: functional; settings: Ca-Ski
PBMC = test: Immunosuppressive activity in PHA-stumulated CSFE labeled human enriched PBMC assessed as cell growth at IC50 after 72 hrs by flow cytometric analysis (reference value: 65.90%); type: functional
Ca-Ski [16] = test: as §1; type: functional, cell-based
HeLa [17] = test: Cell cycle arrest in human HeLa cells assessed as accumulation at S phase at IC50 after 24 hrs by propidium iodide staining-based flow cytometric analysis relative to control; type: functional
ViBo [18] = test: as §2; type: functional, cell-based
Ca-Ski [19] = test: Induction of apoptosis in human CaSki cells assessed as chromatin condensation by DAPI staining-based fluorescence microscopic analysis; type: functional, cell-based
HeLa [20] = test: Induction of apoptosis in human HeLa cells assessed as DNA fragmentation at 10 to 18 uM after 24 hrs by TUNEL assay; type: functional, cell-based
Ca-Ski [21] = test: Induction of apoptosis in human CaSki cells assessed as DNA fragmentation at 10 to 18 uM after 24 hrs by TUNEL assay; type: functional, cell-based
[22] = Cell cycle arrest in human ViBo cells assessed as accumulation at S phase at IC50 after 24 hrs by propidium iodide staining-based flow cytometric analysis relative to control; type: functional
HeLa [23] = test: Cytotoxicity against human HeLa cells at IC50 after 24 hrs by LDH release assay relative to control; type: functional
ViBo [24] = test: Induction of apoptosis in human ViBo cells assessed as chromatin condensation by DAPI staining-based fluorescence microscopic analysis; type: functional, cell-based
[25] = Cell cycle arrest in human ViBo cells assessed as accumulation at G1 phase at IC50 after 24 hrs by propidium iodide staining-based flow cytometric analysis relative to control; type: functional
[26] = Cell cycle arrest in human ViBo cells assessed as accumulation at sub-G1 phase at IC50 after 24 hrs by propidium iodide staining-based flow cytometric analysis relative to control; type: functional
HeLa [27] = test: Cell cycle arrest in human HeLa cells assessed as accumulation at G2/M phase at IC50 after 24 hrs by propidium iodide staining-based flow cytometric analysis relative to control; type: functional
HeLa [28] = test: Induction of apoptosis in human HeLa cells assessed as effect on cell morphology; type: functional, cell-based
[29] = Cell cycle arrest in human CaSki cells assessed as accumulation at G2/M phase at IC50 after 24 hrs by propidium iodide staining-based flow cytometric analysis relative to control; type: functional; settings: Ca-Ski
ViBo [30] = test: Induction of apoptosis in human ViBo cells assessed as effect on cell morphology; type: functional, cell-based
[31] = Cell cycle arrest in human ViBo cells assessed as accumulation at G2/M phase at IC50 after 24 hrs by propidium iodide staining-based flow cytometric analysis relative to control; type: functional
ViBo [32] = test: Induction of apoptosis in human ViBo cells assessed as caspase-3 activation at 10 to 18 uM after 15 mins by DAPI staining-based epifluorescence microscopic analysis; type: functional, cell-based
HeLa [33] = test: Induction of apoptosis in human HeLa cells assessed as caspase-3 activation at 10 to 18 uM after 15 mins by DAPI staining-based epifluorescence microscopic analysis; type: functional, cell-based
Ca-Ski [34] = test: Induction of apoptosis in human CaSki cells assessed as caspase-3 activation at 95 to 97 uM after 15 mins by DAPI staining-based epifluorescence microscopic analysis; type: functional, cell-based
ViBo [35] = test: Induction of apoptosis in human ViBo cells assessed as caspase-3 activation at 95 to 97 uM after 15 mins by DAPI staining-based epifluorescence microscopic analysis; type: functional, cell-based
HeLa [36] = test: Induction of apoptosis in human HeLa cells assessed as DNA fragmentation at 95 to 97 uM after 24 hrs by TUNEL assay; type: functional, cell-based
Ca-Ski [37] = test: Induction of apoptosis in human CaSki cells assessed as DNA fragmentation at 95 to 97 uM after 24 hrs by TUNEL assay; type: functional, cell-based
ViBo [38] = test: Induction of apoptosis in human ViBo cells assessed as DNA fragmentation at 95 to 97 uM after 24 hrs by TUNEL assay; type: functional, cell-based
HeLa [39] = test: Induction of apoptosis in human HeLa cells assessed as caspase-3 activation at 95 to 97 uM after 15 mins by DAPI staining-based epifluorescence microscopic analysis; type: functional, cell-based

Compound: CC(=O)O[C@H]1C(=O)[C@@]2(C)[C@H]([C@H](OC(=O)c3ccccc3)[C@]3(O)C[C@H](OC(=O)[C@H](O)[C@@H](NC(=O)c4ccccc4)c4ccccc4)C(C)=C1C3(C)C)[C@]1(OC(C)=O)CO[C@@H]1C[C@@H]2O [PACLITAXEL]
IC50 [1]: 2.9 µM | IC50 [2]: 1.6 µM

IC50 (HeLa [7]): 10 µM
Compound: CC(=O)O[C@H]1CC[C@@]2(C)C(=CC[C@H]3[C@@H]4C[C@H](OC(C)=O)[C@H]([C@H](C)C(=O)CC[C@@H](C)C[Se]C#N)[C@@]4(C)CC[C@@H]32)C1
Activity (ViBo [3]): Active | Activity [4]: 33% | Activity [5]: 45% | Activity (HeLa [6]): Active | Activity (HeLa [7]): Dose-dependent effect | Activity (Ca-Ski [8]): Active | Activity [9]: 18.9% | Activity [10]: Non-toxic | Activity (HeLa [11]): 12.6% | Activity (HeLa [12]): 56.19% | Activity (Ca-Ski [13]): Active | Activity [14]: 31.2% | Activity [15]: 41.4% | Activity (PBMC): 51.96% | IC50 [1]: 15 µM | Activity (Ca-Ski [16]): Dose-dependent effect | Activity (HeLa [17]): 17.04% | IC50 [2]: 18 µM | Activity (ViBo [18]): Dose-dependent effect | Activity (Ca-Ski [19]): Active | Activity (HeLa [20]): Active | Activity (Ca-Ski [21]): Active | Activity [22]: 8.67% | Activity (HeLa [23]): 72% | Activity (ViBo [24]): Active | Activity [25]: 69.5% | Activity [26]: 8.13% | Activity (HeLa [27]): 11.58% | Activity (HeLa [28]): Active | Activity [29]: 9.68% | Activity (ViBo [30]): Active | Activity [31]: 7.27% | Activity (ViBo [32]): Active | Activity (HeLa [33]): Active

IC50 (HeLa [7]): 95 µM
Compound: CC(=O)O[C@H]1CC[C@@]2(C)[C@@H](CC[C@@H]3[C@@H]2CC(=O)[C@]2(C)[C@@H]([C@H](C)C(=O)CC[C@@H](C)C[Se]C#N)[C@@H](OC(C)=O)C[C@@H]32)C1
Activity [4]: 0% | Activity [5]: 16% | Activity (HeLa [6]): Active | Activity (HeLa [7]): Dose-dependent effect | Activity (Ca-Ski [34]): Active | Activity (ViBo [35]): Active | Activity (HeLa [36]): Active | Activity [9]: 19.4% | Activity [10]: Non-toxic | Activity (HeLa [11]): 4.74% | Activity (HeLa [12]): 64.04% | Activity (Ca-Ski [13]): Active | Activity [14]: 49.2% | Activity (Ca-Ski [37]): Active | Activity [15]: 8.2% | Activity (PBMC): 25.28% | IC50 [1]: 97 µM | Activity (Ca-Ski [16]): Dose-dependent effect | Activity (HeLa [17]): 18.54% | IC50 [2]: 97 µM | Activity (ViBo [18]): Dose-dependent effect | Activity (Ca-Ski [19]): Active | Activity [22]: 16.2% | Activity (HeLa [23]): 27% | Activity (ViBo [24]): Active | Activity [25]: 59.3% | Activity [26]: 10.8% | Activity (HeLa [27]): 10.9% | Activity (ViBo [38]): Active | Activity (HeLa [28]): Active | Activity [29]: 13.2% | Activity (HeLa [39]): Active | Activity (ViBo [30]): Active | Activity [31]: 5.8%

Source: ChEMBL document CHEMBL3351703, “Probing the selective antitumor activity of 22-oxo-26-selenocyanocholestane derivatives” (Eur J Med Chem, 2014)
